PMC5944028, “Nonclinical and clinical pharmacological characterization of the potent and selective cathepsin K inhibitor MIV-711” (Journal of Translational Medicine, 2018)

Experiments:
[1] = tested on: plasma CTX-I; test: Monkey plasma CTX-I, single oral dose; type: in vivo, cynomolgus monkeys (Macaca fascicularis)
Description: Eight cynomolgus monkeys (Macaca fascicularis) were used for measuring plasma levels of MIV-711 and CTX-I after a single dose. The animals were healthy young males, approximately 2–4 years old and weighing 3–4 kg. Experiments were performed at Covance Ltd (Harrogate, UK). The monkeys were used over an extended period of time (up to a year) and several cathepsin K inhibitors were evaluated during this time. At least 1 week was allowed for washout in between experiments. This was not believed to affect the results with MIV-711, and vehicle controls were run on a regular basis when appropriate. Each animal received at least one dose of MIV-711 and one dose of vehicle with at least 1 week of washout in between treatments.
In single dose experiments, animals were dosed with vehicle or MIV-711 (3–30 µmol/kg) via oral gavage at a dose volume of 4 mL/kg between 7:30 and 9:00 a.m. Blood samples were collected at baseline, 30 min, 1, 2, 4, 8, 12, 24 and 48 h after dose from the femoral vein and transferred into lithium heparin anticoagulant tubes. The samples were centrifuged and the two aliquots of the resultant plasma were frozen at − 70 °C. All samples were processed and stored within 30 min of collection. The aliquots were used to determine the MIV-711 concentration and CTX-I levels, respectively. [drawing 1]
Since the concentration of MIV-711 was measured in each animal it was possible to relate the MIV-711 exposure over 24 h to the % CTX-I inhibition over 24 h in each animal.
The quantification of CTX-I in monkey plasma samples and human serum samples was performed using a commercially available kit (Serum CrossLaps ELISA, IDS Nordic, Herlev, Denmark). The levels of CTX-I in monkey urine samples were measured using a commercially available kit (Urine BETA CrossLaps ELISA, IDS Nordic). The quantification of NTX-I in monkey samples was performed using a commercially available kit (Osteomark NTx Urine, Wampole Laboratories, Inc, Princeton, USA). Urinary levels of CTX-II in monkey samples were measured using a commercially available kit (Urine CrossLaps EIA, IDS Nordic). The concentrations of biomarkers in the urine samples were corrected for creatinine concentrations. The creatinine levels in urine were determined at Swedish University of Agricultural Sciences, using the enzymatic assay (cat no. 8L24-01) on the Abbott system Architect c4000.

[2] = target: guinea pig cathepsin K; test: Recombinant enzyme assay, guinea pig cathepsin K; type: biochemical; details: geometric mean
Excerpt: Recombinant cathepsin K enzymes from all species were expressed in E. coli, purified and activated. Human cathepsin F and cathepsin S were expressed in Baculovirus, purified and activated. Purified human cathepsins B and H (Athens Research Technology), cathepsin L (Calbiochem), and cathepsin V (R & D Systems) were purchased.
H-D-Ala_Leu-Lys-AMC was used as the substrate in assays of cathepsin K from non-rodent species (human, dog, rabbit and guinea pig), and Z-Leu-Arg-AMC was used as the substrate in assays of cathepsin K from rodent species (mouse and rat). […]
Assays were carried out in white polystyrene 96-well plates in a final volume of 100 µL. […] Plates were read in a Fluoroskan Ascent (Thermo Labsystems, Helsinki, Finland) in kinetic mode, with excitation and emission filters of 390 and 460 nm, respectively. Rates were determined by linear regression of the fluorescence/time data in Excel. Rates were fitted by non-linear regression to either the competitive inhibition equation, with the substrate concentration fixed at the value in the assay and the KM fixed to the value previously determined, or the IC50 equation using GraphPad Prism (GraphPad, version 6, San Diego, USA) to obtain Ki or IC50 values, respectively.

[3] = tested on: urine NTX-I; test: Monkey urine NTX-I, multiple doses; type: in vivo, cynomolgus monkeys (Macaca fascicularis)
Description: Biomarkers such as NTX-I (bone resorption) and CTX-II (cartilage degradation) are typically measured in urine. Additional experiments in which urine was collected were therefore performed. In these experiments, four cynomolgus monkeys (Macaca fascicularis) were used (Aptuit, Edinburgh, UK). The animals were healthy young females weighing 3.5–4 kg. Animals were dosed with vehicle or MIV-711 via oral gavage at a dose volume of 5 mL/kg between 7:30 and 8:30 a.m. Animals first received vehicle via oral gavage for five consecutive days. After a washout period, the animals then received MIV-711 (30 µmol/kg) via oral gavage for five consecutive days.
Urine was collected between 8–12 a.m., 12 a.m.–4 p.m. and 4 p.m.–8 a.m. on Day 1 and Day 5 of respective treatment. Biomarkers were measured in each urine sample, corrected for creatinine, and the mean value of the three samples on Day 1 and Day 5 was calculated. The effect of MIV-711 was evaluated by comparing biomarkers in urine samples collected on Day 1 and Day 5 with respective vehicle sample. [drawing 3]
The quantification of CTX-I in monkey plasma samples and human serum samples was performed using a commercially available kit (Serum CrossLaps ELISA, IDS Nordic, Herlev, Denmark). The levels of CTX-I in monkey urine samples were measured using a commercially available kit (Urine BETA CrossLaps ELISA, IDS Nordic). […]

`C#C[C@@H]1CN(C(=O)[C@H](CC(C)C)NC(=O)c2ccc(-c3nc(N4CCN(C)CC4)sc3F)cc2)[C@@H]2C(=O)CO[C@H]12` [MIV-711] was tested, and the “Effect on plasma CTX-I versus vehicle” value ([1]; 3 µmol/kg p.o. (p > 0.05)) was “did not differ significantly vs. vehicle”, the “Effect on plasma CTX-I versus vehicle” value ([1]; 10 µmol/kg p.o., between 8 and 24 h post-dose (p < 0.05)) was “statistically significant versus vehicle” and the “Exposure required for 50% reduction of CTX-I at 24 h post dose” value ([1]; AUC0–24h) was 1.5 µmol/L/h. For the same compound, the “Reduction of plasma CTX-I compared to baseline” value ([1]; highest dose (30 µmol/kg p.o.), 24 h post-dose) was 57%, the Ki [2] was 9.8 nM and the “Reduction of urinary NTX-I compared to vehicle” value ([3]; 30 µmol/kg p.o. once daily for 5 days, creatinine-corrected) was 71%. The “Effect on urinary NTX-I compared to vehicle” value ([3]; single dose 30 µmol/kg p.o. (Day 1)) was “immediately reduced”.
